From patent EP4745139A1, “COMPOUND FOR TREATING AND PREVENTING RESPIRATORY SYNCYTIAL VIRUS INFECTION DISEASES” (CSPC Zhongqi Pharmaceutical Technology (Shijiazhuang) Co., …, priority 2023, dated 2025)

Columns and labels:
[1] = tested on: RSV strain A2; assay: Antiviral detection test against RSV strain A2 based on ELISA method (Hep-2 cells); assay type: cell-based, Respiratory Syncytial Virus; conditions: for IC50: human respiratory syncytial virus, RSV A2 virus strain, Hep-2 cells, ELISA OD450; for AK0529 IC50 / IC50 of the compounds of the present invention: ratio of IC50 values against RSV A2 virus strain, control compound AK0529
Method: Test Example 1: Antiviral detection test of small molecules against RSV strain A2 based on ELISA method
• Source of cell line: Nanjing Kebai Biotechnology Co., Ltd. • Cell type: human laryngeal carcinoma epithelial cells Hep-2
• 96-well culture plate (Cat.No. 3610, Corning Costar); • Fetal bovine serum (Cat.No. 10099-141, GIBCO); • DMEM medium (Cat.No. 11995500BT, GIBCO); • Envision 2104 microplate reader.
• 1. Day 1: The Hep-2 cells were seeded into a 96-well plate at a density of 1×10^4 cells/well; • 2. Day 2: • A. Compound dilution: The compound in the first well was diluted to 9 µM, and 3-fold gradient dilution was performed, with a total of 10 gradients; • B. The Hep-2 cell plate prepared on Day 1 was taken out from the incubator, the supernatant was discarded, and 100 PFU/well/50 µL of the RSV A2 virus was added to each well. The plate was stood at 37°C in a 5% CO2 incubator for 2 hours, the supernatant was aspirated and discarded, and then 100 µL of the gradient-diluted compound or DMEM maintenance medium containing 2% FBS was added to each well; • 3. Day 5: • A. Add fixative: The gradient-diluted compound or medium was discarded from the wells, and 100 µL/well of fixative (4% paraformaldehyde) was added. The plate was stood at room temperature for 10 minutes, and then was washed once with 250 µL PBS; • B. 100 µL/well of a blocking solution was added, and the plate was incubated at 37°C in a 5% CO2 incubator for 30 minutes; • C. After incubation, the detection antibody (Anti RSV Fpro) was added at 0.3 µg/50 µL/well (6 µg/mL), and the plate was incubated at 37°C in a 5% CO2 incubator for 1 hour; • D. After incubation, the HRP secondary antibody was added (diluted 10,000-fold with 0.2% BSA), and the plate was incubated at 37°C in a 5% CO2 incubator for 1 hour; • E. After incubation, the wells were washed for 4 times with PBST, 250 µL/well, each washing was allowed to stand for 5 minutes, and the liquid in the wells was shaken off after completion of the washing; • F. 100 µL/well of a development solution was added, the plate was incubated at room temperature in the dark for 20 minutes, and 50 µL/well of a reaction termination solution was added. The plate was tapped gently to mix the solutions, and the absorbance at 450 nm was measured using the microplate reader. • 4. Data analysis • Inhibition rate of the compound against the virus = 100% - (SC - CC)/(VC - CC) × 100% • SC: OD450 value of the sample (cells + test compound + virus) • CC: OD450 value of the normal growing cell control (cells) • VC: OD450 value of the virus growth control (cells + virus)
The software Graphpad Prism 6 was used, and the calculation formula XY-analysis/Nonlinear regression (curve fit)/Dose response-Inhibition/log (inhibition) vs. response-Variable slope (four parameters) was adopted to fit the IC50 curve and calculate the IC50 value.

[2] = Pharmacokinetic experiment in mice after intragastric administration (plasma and lung tissue, LC/MS/MS); assay type: in vivo; conditions: ICR, mouse, intragastric administration at 20 mg/kg; for concentration at 6 h: lung, oral, read-out: Lung tissue drug concentration at 6 h; for half-life: plasma, po
Method: The compounds of the present invention for intragastric administration were dissolved in a suitable solvent to form a clear solution or suspension.
Administration mode and dosage: The compounds of the present invention were administered intragastrically at 10 mg/kg or 20 mg/kg.
Number of animals: 3 ICR mice per group for intragastric administration.
Sample collection: For the intragastric administration group, 100 µL of blood was collected (using pre-heparinized 100 µL Capillary Blood Collection Tubes) from the orbital vein of mice at 0.25 h, 0.5 h, 1 h, 2 h, 4 h, and 6 h after administration and placed in heparin sodium anticoagulant tubes. Mice plasma samples were obtained by centrifugation at 3000 g for 10 minutes within 2 hours. For the intragastric administration group, clean blood was collected at 6-hour time point and then lung tissues were collected.
Sample treatment: Plasma and lung tissue homogenates were subjected to protein precipitation with methanol at a certain ratio, and the supernatant was taken and diluted with 50% methanol-water at a certain ratio for sample loading.
Sample detection: The drug concentration in plasma was detected by the LC/MS/MS method, and the drug-time curve was plotted. Pharmacokinetic parameters (such as T1/2(h)/AUC0-t) were calculated by non-compartmental model statistical moments to describe the pharmacokinetic behavior of the compounds in mice after administration.
Data processing: Pharmacokinetic parameters were calculated by WinNonlin.

[3] = tested on: RSV; assay: In vivo pharmacodynamic assay: mouse RSV infection model, lung viral load by plaque assay; design: species or system BALB/c mice; conditions: 50 mpk, BID, 5 days administration; lung tissue, Day 5
Method: The compound of the present invention was dissolved in a suitable solvent to form a clear solution or suspension for intragastric administration. • Animals: BALB/c mice, 6-weeks old, female. • Establishment of in vivo RSV infection model: Mice were inoculated intranasally with the virus on Day 0, with an inoculation dose of 3.5 × 10^6 p.f.u. per mouse. • Grouping of animals: Animals were divided into a vehicle control group and an administration group, with 5 animals in each group.
Administration mode and dosage: The compound of the present invention was administered intragastrically at 100 mg/kg or 50 mg/kg, or the vehicle used for the compound of the present invention was administered intragastrically. The administration volume was 10 mL/kg.
Experimental procedure: Mice were inoculated intranasally with the virus on Day 0 at an inoculation dose of 3.5 × 10^6 p.f.u. per mouse. Mice were continuously treated with the compound of the present invention from Day 0 to Day 4 for 5 days at a dose of 50 mg/kg, once daily, via intragastric administration, with an administration volume of 10 mL/kg; the first administration was conducted 1 hour before virus inoculation. Alternatively, mice were treated once with the compound of the present invention on Day 0 at a dose of 100 mg/kg, via intragastric administration, with an administration volume of 10 mL/kg; the first administration was conducted 1 hour before virus inoculation. On Day 5, mice were euthanized, and lung tissue samples were collected. Animals were observed daily from Day 0 to Day 5, and the body weight, health status, and survival status were recorded.
Sample processing: After lungs were collected, they were quickly frozen in the HBSS* solution at a 10-fold weight-to-volume ratio (w:v (g:mL) = 1:10), and stored in a -80°C refrigerator for plaque assay to detect viral load.
Sample detection: Viral load in lung tissues was detected by plaque assay. […]

Compound | IC50 [1] [µM] | AK0529 IC50 / IC50 of the compounds of the present invention [1] | concentration at 6 h [2] [ng/g] | half-life [2] [h] | log (RSV Viral Load) Mean [3]
Cc1ccc2nc(N3CCS(=O)(=NC4CC4)c4ccccc4C3)nc(N3CC(N)C3)c2c1 (stereo not drawn) [Example 4-76, 4-(4-(3-aminoazetidin-1-yl)-6-methylquinazolin-2-yl)-1-(cyclopropylimino)-2,3,4,5-tetrahydrobenzo[f][1,4]thiazepine-1-oxide] | < 0.01 | ratio ≥20 | 28800 |  | 
Cc1ccc2nc(N3CCS(=O)(=NC4CC4)c4ccccc4C3)nc(N3CC(CN)C3)c2c1 (stereo not drawn) [Example 4-9, 4-(4-(3-(aminomethyl)azetidin-1-yl)-6-methylquinazolin-2-yl)-1-(cyclopropylimino)-2,3,4,5-tetrahydro-benzo[f][1,4]thiazepine-1-oxide] | < 0.01 |  | 5920 | 6.21 | 
Cc1ccc2nc(N3CCS(=O)(=O)c4ccccc4C3)nc(NCC3(N)COC3)c2c1 [AK0529, reference compound] |  |  | 1210 | 1.55 | 3.06
Cc1ccc2nc(N3CCS(=O)(=NC4CC4)c4ccccc4C3)nc(N[C@H]3CNC[C@@H]3F)c2c1 (stereo partly drawn) [Example 4-24, 1-(cyclopropylimino)-4-(4-(((3S,4S)-4-fluoropyrrolidin-3-yl)amino)-6-methylquinazolin-2-yl)-2,3,4,5-tetrahydrobenzo[f][1,4]thiazepine-1-oxide] | < 0.01 | ratio ≥20 | 15400 | 4.48 | 
Cc1ccc2nc(N3CCS(=O)(=NC4CC4)c4ccccc4C3)nc(NCC3(N)COC3)c2c1C (stereo not drawn) [Example 4-15, 4-(4-(((3-aminooxetan-3-yl)methyl)amino)-5,6-dimethylquinazolin-2-yl)-1-(cyclopropylimino)-2,3,4,5-tetrahydro-benzo[f][1,4]thiazepine-1-oxide] |  |  | 5130 | 1.61 | 
N[C@H]1CCN(c2nc(N3CCS(=O)(=NC4CC4)c4ccccc4C3)nc3ccc(C(F)F)cc23)C1 (stereo partly drawn) [Example 4-62, 4-(4-((S)-3-aminopyrrolidin-1-yl)-6-(difluoromethyl)quinazolin-2-yl)-1-(cyclopropylimino)-2,3,4,5-tetrahydro-benzo[f][1,4]thiazepine-1-oxide] | < 0.01 |  | 53100 |  | 
COCC(C)N=S1(=O)CCN(c2nc(N3CC[C@H](N)C3)c3cc(C)ccc3n2)Cc2ccccc21 (stereo partly drawn) [Example 4-69] | < 0.01 |  | 6010 | 2.28 | 
CNC(=O)N=S1(=O)CCN(c2nc(NCC3(N)COC3)c3cc(C)ccc3n2)Cc2ccccc21 (stereo not drawn) [Example 2-37, 1-(4-(4-(((3-aminooxetan-3-yl)methyl)amino)-6-methylquinazolin-2-yl)-1-oxido-2,3,4,5-tetrahydro-1λ^4-benzo[f][1,4]thiazepin-1-ylidene)-3-methylurea] | < 0.01 |  |  |  | 
COCCCN=S1(=O)CCN(c2nc(N3CC[C@H](N)C3)c3cc(C)ccc3n2)Cc2ccccc21 (stereo partly drawn) [Example 4-71] | < 0.01 |  |  |  | 

Continued, in another order:

IC50 [1] [µM] | AK0529 IC50 / IC50 of the compounds of the present invention [1] | concentration at 6 h [2] [ng/g] | half-life [2] [h] | Compound | log (RSV Viral Load) Mean [3]
< 0.01 |  | 8220 | 2.16 | Cc1ccc2nc(N3CCS(=O)(=NC4CCOC4)c4ccccc4C3)nc(N3CC[C@H](N)C3)c2c1 (stereo partly drawn) [Example 4-67] | 
< 0.01 | ratio ≥20 | 75800 | 5.29 | NC1CN(c2nc(N3CCS(=O)(=NC4CC4)c4ccccc4C3)nc3ccc(C(F)F)cc23)C1 (stereo not drawn) [Example 4-17, 4-(4-(3-aminoazetidin-1-yl)-6-(difluoromethyl)quinazolin-2-yl)-1-(cyclopropylimino)-2,3,4,5-tetrahydro-benzo[f][1,4]thiazepine-1-oxide] | 
< 0.01 |  | 29700 | 6.44 | Cc1ccc2nc(N3CCS(=O)(=NC4CC4)c4ccccc4C3)nc(N3CC[C@@H](N)C3)c2c1 (stereo partly drawn) [Example 4-12] | 
< 0.01 |  | 19200 | 2.33 | Cc1ccc2nc(N3CCS(=O)(=NC4CCOC4)c4ccccc4C3)nc(N3CC[C@@H](N)C3)c2c1 (stereo partly drawn) [Example 4-43] | 
 |  | 25300 | 10.8 | Cc1ccc2nc(N3CCS(=O)(=NC4CC4)c4ccccc4C3)nc(N3CC4C(N)C4C3)c2c1 (stereo not drawn) [Example 4-8, 4-(4-(6-amino-3-azabicyclo[3.1.0]hexan-3-yl)-6-methylquinazolin-2-yl)-1-(cyclopropylimino)-2,3,4,5-tetrahydro-benzo[f][1,4]thiazepine-1-oxide] | 
< 0.01 |  |  |  | CC(O)(CCN=S1(=O)CCN(c2nc(N3CC[C@H](N)C3)c3cc(C(F)F)ccc3n2)Cc2ccccc21)C(F)(F)F (stereo partly drawn) [Example 4-63, 4-(4-((S)-3-aminopyrrolidin-1-yl)-6-(difluoromethyl)quinazolin-2-yl)-1-((4,4,4-trifluoro-3-hydroxy-3-methylbutyl)imino)-2,3,4,5-tetrahydro-benzo[f] [1,4]thiazepine-1-oxide] | 
< 0.01 | ratio ≥20 | 7170 | 2.49 | N[C@H]1CCN(c2nc(N3CCS(=O)(=NCC4CCO4)c4ccccc4C3)nc3ccc(C(F)F)cc23)C1 (stereo partly drawn) [Example 4-74, 4-(4-((S)-3-aminopyrrolidin-1-yl)-6-(difluoromethyl)quinazolin-2-yl)-1-((oxetan-2-ylmethyl)imino)-2,3,4,5-tetrahydro-benzo[f][1,4]thiazepine-1-oxide] | 
